These results are taken from BindingDB's records for doi:10.1016/j.ejmech.2016.01.046 (Italian Institute of Technology, 2016).

This experiment has as its target T1, N-acylethanolamine-hydrolyzing acid amidase (Homo sapiens, UniProt Q02083).
T1 sequence (Q02083 whole entry): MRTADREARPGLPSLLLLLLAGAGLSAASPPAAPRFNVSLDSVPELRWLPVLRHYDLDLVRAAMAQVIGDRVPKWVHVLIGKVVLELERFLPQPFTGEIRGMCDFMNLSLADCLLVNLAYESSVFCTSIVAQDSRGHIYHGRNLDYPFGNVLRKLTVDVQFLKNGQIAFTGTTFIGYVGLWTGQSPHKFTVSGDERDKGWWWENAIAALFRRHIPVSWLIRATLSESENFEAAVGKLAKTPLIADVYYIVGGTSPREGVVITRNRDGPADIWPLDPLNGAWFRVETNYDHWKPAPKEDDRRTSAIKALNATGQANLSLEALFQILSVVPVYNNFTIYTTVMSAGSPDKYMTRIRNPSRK
Put plainly: ChEBML_1558887. As for the experimental part: Inhibition of human NAAA expressed in HEK293 cells preincubated for 10 mins followed by N-(4-methyl-2-oxo-chromen-7-yl)-hexadecanamide substrate addition for 30 mins by microplate reader analysis

What is called IC50 is the concentration that gives 50% inhibition.

In the case of `COc1ccc(CCCCOC(=O)N[C@H]2CNC2=O)cc1`, the concentration for half-maximal inhibition (IC50) was determined as 520 nM.
